Results: patent US20120316161A1, “NOVEL ANTIVIRAL COMPOUNDS” (KATHOLIEKE UNIVERSITEIT LEUVEN, priority 2009, published 2012)
Like-named read-outs stand apart in the source and are kept apart here.

Assays:
[1] = tested on: MT-4 cells; assay: Cytotoxicity in mock-infected MT-4 cells (MTT); assay type: cell-based
Description: (§1) A rapid and automated assay procedure was used for the in vitro evaluation of anti-HIV agents. An HTLV-1 transformed T4-cell line MT-4, which was previously shown to be highly susceptible to and permissive for HIV infection, served as the target cell line. Inhibition of the HIV-induced cytopathogenic effect was used as the end point. The viability of both HIV-and mock-infected cells was assessed spectrophotometrically via in situ reduction of 3-(4,5-dimethylthiazol-2-yl)-2,5-diphenyltetrazolium bromide (MTT). […] The percent protection achieved by the compound in HIV-infected cells was calculated by the following formula: […]
(§2) whereby (ODT)HIV is the optical density measured with a given concentration of the test compound in HIV-infected cells; (ODC)HIV is the optical density measured for the control untreated HIV-infected cells; (ODC)MOCK is the optical density measured for the control untreated mock-infected cells; all optical density values were determined at 540 nm. […] The ratio of CC50 to EC50 was defined as the selectivity index (SI).

[2] = molecular target: T1, LEDGF-integrase interaction (His6-tagged HIV-1 integrase, flag-LEDGF/p75) (Human immunodeficiency virus type 1 group M subtype B, UniProt P04585); assay: AlphaScreen assay of LEDGF-integrase interaction inhibition; assay type: binding; conditions: compound at 100 μM
T1 construct: His6-tagged HIV-1 integrase; made in house
Description: The AlphaScreen assay was performed according to the manufacturer's protocol (Perkin Elmer, Benelux). Reactions were performed in 25 μl final volume in 384-well Optiwell™ microtiter plates (Perkin Elmer). The reaction buffer contained 25 mM Tris-HCl (pH 7.4), 150 mM NaCl, 1 mM MgCl2, 0.01% (v/v) Tween-20 and 0.1% (w/v) bovine serum albumin. His6-tagged integrase (300 nM final concentration) was incubated with the compounds for 30 min at 4° C. The compounds were added at varying concentrations spanning a wide range from 0.1 up to 100 μM. Afterwards 100 nM flag-LEDGF/p75 was added and incubation was prolonged for an additional hour at 4° C. Subsequently 5 μl of Ni-chelate—coated acceptor beads and 5 μl anti-flag donor beads were added to a final concentration of 20 μg/ml of both beads. Proteins and beads were incubated for 1 h at 30° C. in order to allow association to occur. Exposure of the reaction to direct light was omitted as much as possible and the emission of light from the acceptor beads was measured in the EnVision plate reader (Perkin Elmer, Benelux) and analyzed using the EnVision manager software. IN/DNA binding was analyzed in a similar setting using His6-tagged integrase (1 μM final concentration) and an oligodeoxynucleotide mimicking the IN ELISA oligonucleotide substrate (30 nM final concentration). Counterscreens with JPO2 or PogZ, respectively, were essentially performed as described previously. Expression and purification of recombinant proteins: His6-tagged HIV-1 integrase, 3xflag-tagged LEDGF/p75, MBP-JPO2 and MBP-PogZ were purified for AlphaScreen applications as described previously.

[3] = tested on: HIV; assay: microbe, parasite or virus in culture; assay type: cell-based
Description: A rapid and automated assay procedure was used for the in vitro evaluation of anti-HIV agents. An HTLV-1 transformed T4-cell line MT-4, which was previously shown to be highly susceptible to and permissive for HIV infection, served as the target cell line. Inhibition of the HIV-induced cytopathogenic effect was used as the end point. The viability of both HIV-and mock-infected cells was assessed spectrophotometrically via in situ reduction of 3-(4,5-dimethylthiazol-2-yl)-2,5-diphenyltetrazolium bromide (MTT). The 50% cytotoxic concentration (CC50 in μg/ml) was defined as the concentration of compound that reduced the absorbance of the mock-infected control sample by 50%. The percent protection achieved by the compound in HIV-infected cells was calculated by the following formula: […]
whereby (ODT)HIV is the optical density measured with a given concentration of the test compound in HIV-infected cells; (ODC)HIV is the optical density measured for the control untreated HIV-infected cells; (ODC)MOCK is the optical density measured for the control untreated mock-infected cells; all optical density values were determined at 540 nm. The dose achieving 50% protection according to the above formula was defined as the 50% inhibitory concentration (EC50 in μg/ml or μM). The ratio of CC50 to EC50 was defined as the selectivity index (SI). […] Examples of inhibition of cell proliferation by particular compounds of the invention can be found by looking at the respective CC50 values in the MT-4 cell line. Cells: MT-4 cells (Miyoshi et al., 1982) were grown and maintained in RPMI 1640medium supplemented with 10% heat-inactivated fetal calf serum, 2 mM 1-glutamine, 0.1% sodium bicarbonate, and 20æg of gentamicin per ml.
Viruses: The HIV-1 (NL4.3) strain (Adachi et al., 1986) is a molecular clone obtained from the National Institutes of Health (Bethesda, Md.). The HIV-2 (ROD) (Barr, -Sinoussi et al., 1983) stock was obtained from culture supernatant of HIV-2 infected cell lines.

[4] = Cytotoxicity in mock-infected MT-4 cells (MTT); assay type: cell-based; conditions: human, mock-infected MT-4 cells
Description: as §1, §2

[5] = mock-infected MT-4 cells, read-out: CC50
[6] = 50% protection of HIV-infected MT-4 cells, read-out: EC50
[7] = Human immunodeficiency virus 1, MT4, 50% protection of HIV-infected MT-4 cells, read-out: EC50
[8] = Human immunodeficiency virus 1, MT4

Row | Compound | CC50 [1, 5] [µM] | Alpha screen % (100 μM) [2] [%] | EC50 [3, 6] [µM] | CC50 [4] [µM] | EC50 [3, 7] [µM] | EC50 [3, 8] [µM] | CC50 [1] [µM]
1 | 2-[2-tert-butyl-7-(1,2-dihydroacenaphthylen-5-yl)-5-methylpyrazolo[1,5-a]pyrimidin-6-yl]acetic acid [CPD-111] | 50 | 89 | – | – | – | – | –
2 | 2-[2-tert-butyl-7-(1,2-dihydroacenaphthylen-5-yl)-5-methylpyrazolo[1,5-a]pyrimidin-6-yl]acetic acid [CPD-112] | 59 | 93 | – | – | – | – | –
3 | 2-[2-tert-butyl-7-(2-hydroxy-4-methylphenyl)-5-methylpyrazolo[1,5-a]pyrimidin-6-yl]acetic acid [CPD-117] | 116 | 95 | 2.06 | – | – | – | –
4 | COCCC(C(=O)O)c1c(C)nc2cc(C(C)(C)C)nn2c1-c1ccc(C)cc1 (stereo not drawn) [CPD-88, 2-(2-tert-butyl-7-p-tolyl-5-methylpyrazolo[1,5-a]pyrimidin-6-yl)-4-methoxybutanoic acid] | – | 44 | – | > 250 | 38 | – | –
5 | CCCC(C(=O)O)c1c(C)nc2cc(C(C)(C)C)nn2c1-c1ccc(C(C)C)cc1 (stereo not drawn) [CPD-89, 2-(2-tert-butyl-5-methyl-7-(4-iso-propylphenyl)pyrazolo[1,5-a]pyrimidin-6-yl)pentanoic acid] | – | 89 | – | 139 | – | 24 | –
6 | CCCC(C(=O)O)c1c(C)nc2cc(C(C)(C)C)nn2c1-c1ccc(C(F)(F)F)cc1 (stereo not drawn) [CPD-90, 2-(2-tert-butyl-5-methyl-7-(4-trifluoromethylphenyl)pyrazolo[1,5-a]pyrimidin-6-yl)pentanoic acid] | – | 70 | – | 22 | 6.15 | – | –
7 | CCCC(C(=O)O)c1c(C)nc2cc(C(C)(C)C)nn2c1-c1ccc(F)cc1F (stereo not drawn) [CPD-91, 2-(2-tert-butyl-7-(2,4-difluorophenyl)-5-methylpyrazolo[1,5-a]pyrimidin-6-yl)pentanoic acid] | – | 90 | – | 85.5 | 15.7 | – | –
8 | CCCC(C(=O)O)c1c(C)nc2cc(C(C)(C)C)nn2c1-c1ccc(C)cc1Cl (stereo not drawn) [CPD-92, 2-(2-tert-butyl-7-(2-chloro-4-methylphenyl)-5-methylpyrazolo[1,5-a]pyrimidin-6-yl)pentanoic acid] | – | 95 | – | 60.5 | 9.13 | – | –
9 | CCCC(C(=O)O)c1c(C)nc2cc(C(C)(C)C)nn2c1-c1ccc(C)cc1N (stereo not drawn) [CPD-93, 2-(7-(2-amino-4-methylphenyl)-2-tert-butyl-5-methylpyrazolo[1,5-a]pyrimidin-6-yl)pentanoic acid] | – | 90 | – | 119 | – | 7.4 | –
10 | CCCC(C(=O)O)c1c(C)nc2cc(C(C)(C)C)nn2c1-c1ccc(OC)cc1F (stereo not drawn) [CPD-95, 2-(2-tert-butyl-7-(2-fluoro-4-methoxyphenyl)-5-methylpyrazolo[1,5-a]pyrimidin-6-yl)pentanoic acid] | – | 83 | – | 115 | 7.48 | – | –
11 | CCCC(C(=O)O)c1c(C)nc2cc(C(C)(C)C)nn2c1-c1ccc(C)cc1C (stereo not drawn) [CPD-98, 2-(2-tert-butyl-7-(2,4-dimethylphenyl)-5-methylpyrazolo[1,5-a]pyrimidin-6-yl)pentanoic acid] | – | 89 | – | 69 | – | 5.91 | –
12 | CCCC(C(=O)O)c1c(C)nc2c(C)c(C(C)(C)C)nn2c1-c1ccc(C)cc1 (stereo not drawn) [CPD-99, 2-(2-tert-butyl-3,5-dimethyl-7-p-tolylpyrazolo[1,5-a]pyrimidin-6-yl)pentanoic acid] | – | 81 | – | 34 | 1.01 | – | –
13 | CCCC(C(=O)O)c1c(C)nc2c(-c3ccccc3)c(C(C)(C)C)nn2c1-c1ccc(C)cc1 (stereo not drawn) [CPD-100, 2-(2-tert-butyl-5-methyl-3-phenyl-7-p-tolylpyrazolo[1,5-a]pyrimidin-6-yl)pentanoic acid] | – | 92 | – | 23 | 6.24 | – | –
14 | Ethyl 2-(2-benzyl-5-methyl-7-p-tolyl-[1,2,4]-triazolo[1,5-a]pyrimidin-6-yl)pentanoate [CPD-123] | – | – | 26.1 | – | – | – | 126
